Experimental data from patent publication EP1660440B1, “ACYLOXYALKYL CARBAMATE PRODRUGS, METHODS OF SYNTHESIS AND USE” (priority 2003, dated 2005).
Read-outs that look alike come from different tables or passages of the source.

Key:
Pancreatin = Pancreatin stability; type: in vitro ADME, porcine; conditions: 5 µM
Description: (§1) Pancreatin Stability: Stability studies were conducted by incubating prodrug (5 µM) with 1 % (w/v) pancreatin (Sigma, P-1625, from porcine pancreas) in 0.025 M Tris buffer containing 0.5 M NaCl (pH 7.5) at 37 °C for 60 min. The reaction was stopped by addition of 2 volumes of methanol. After centrifugation at 14,000 rpm for 10 min, the supernatant was removed and analyzed by LC/MS/MS.

[1] = not given; remark: listed apart in the source
[2] = not given; remark: listed apart in the source
[3] = not given; remark: listed apart in the source
[4] = not given; remark: listed apart in the source
[5] = 5 µM
Description: (§2) For stability studies, prodrug (5 µM) was incubated in Caco-2 homogenate S9 fraction (0.5 mg protein per mL) for 60 min at 37°C. Concentrations of intact prodrug and released baclofen were determined at zero time and 60 minutes using LC/MS/MS.

Caco-2 cells = conditions: human, Caco-2, 200 uM
Description: For example, cellular permeability may be evaluated by examining the flux of a prodrug across a cultured polarized cell monolayer (e.g., Caco-2 cells). Caco-2 cells obtained from continuous culture (passage less than 28) were seeded at high density onto Transwell polycarbonate filters. Cells were maintained with DMEM / 10% fetal calf serum + 0.1 mM nonessential amino acids + 2 mM L-Gln, 5% CO2/ / 95% O2, 37°C until the day of the experiment. Permeability studies were conducted at pH 6.5 apically (in 50 mM MES buffer containing 1 mM CaCl2, 1mM MgCl2, 150 mM NaCl, 3 mM KCl, 1 mM NaH2PO4, 5 mM glucose) and pH 7.4 basolaterally (in Hanks' balanced salt solution containing 10 mM HEPES) in the presence of efflux pump inhibitors (250 µM MK-571, 250 µM Verapamil, 1 mM Ofloxacin). Inserts were placed in 12 or 24 well plates containing buffer and incubated for 30 min at 37C°. Prodrug (200 µM) was added to the apical or basolateral compartment (donor) and concentrations of prodrug and/or released parent drug in the opposite compartment (receiver) were determined at intervals over 1 hour using LC/MS/MS. Values of apparent permeability (Papp) were calculated using the equation: Papp = Vr (dC/dt)//(ACo) [formula]
Here Vr is the volume of the receiver compartment in mL; dC/dt is the total flux ofprodrug and parent drug (µM/s), determined from the slope of the plot of concentration in the receiver compartment versus time; Co is the initial concentration of prodrug in µM; A is the surface area of the membrane in cm^2.

Pancreatin stability = type: in vitro ADME, porcine; conditions: pig; for remaining at 1 h, 5 µM: read-out: % of Prodrug Remaining
Description: as §1

physchem = conditions: aqueous buffer
Description: (§3) The stabilities of prodrugs were evaluated in one or more in vitro systems using a variety of tissue preparations following methods known in the art. The chemical stability of prodrugs in aqueous buffers at pH's of 2.0, 7.4 and 8.0 were also measured. […] Each preparation was incubated with test compound at 37°C for one hour. Aliquots (50 µL) were removed at 0, 30, and 60 min and quenched with 0.1 % trifluoroacetic acid in acetonitrile.

in vitro [6] = conditions: rat, plasma
Description: as §3

in vitro [7] = conditions: human, plasma, % of Baclofen Released
Description: as §3

in vitro [8] = conditions: rat
Description: as §3

in vitro [9] = conditions: human
Description: as §3

in vitro [10] = conditions: human, caco-2 homogenate s9
Description: as §2

[11] = 1 % (w/v) pancreatin, pH 7.5, 37 °C, after 60 min
[12] = liver s9, % of Prodrug Remaining
[13] = Rat Plasma, 2.0 µM, 37°C, after 60 min, 60 min
[14] = Human Plasma, 2.0 µM, 37°C, after 60 min, 60 min
[15] = Rat Liver S9 (0.5 mg/mL), 2.0 µM, NADPH, 37°C, after 60 min, 60 min
[16] = Human Liver S9 (0.5 mg/mL), 2.0 µM, NADPH, 37°C, after 60 min, 60 min
[17] = Caco-2 S9 (0.5 mg protein per mL), 37°C, after 60 min, 60 min

## CC(=O)OCOC(=O)NC[C@H](CC(=O)[O-])c1ccc(Cl)cc1.[Na+] [(10), Sodium 4-[(Acetoxymethoxy)carbonylamino]-(3R)-(4-chlorophenyl)-butanoate]
Pancreatin; [11]
  % of Baclofen Released: 21%
  % of Prodrug Remaining: 75%
Aqueous buffer, 1 h, pH 2
  % of Baclofen Released: 1%
  % of Prodrug Remaining: 100%
Aqueous buffer, 1 h, pH 7.4
  % of Baclofen Released: 3%
  % of Prodrug Remaining: 101%
Aqueous buffer, 1 h, pH 8
  % of Baclofen Released: 9%
  % of Prodrug Remaining: 98%
[1]; rat, plasma, 1 h, 2 µM
  % of Baclofen Released: 15%
  % of Prodrug Remaining: 85%
[2]; human, plasma, 1 h, 2 µM
  % of Baclofen Released: 26%
  % of Prodrug Remaining: 64%
[3]; rat, s9, 1 h, 2 µM
  % of Baclofen Released: 78%
  % of Prodrug Remaining: 0%
[4]; human, s9, 1 h, 2 µM
  % of Baclofen Released: 80%
  % of Prodrug Remaining: 1%
[5]; human, s9, 1 h
  % of Baclofen Released: 96%
  % of Prodrug Remaining: 2%
Caco-2 cells
  Ratio A-BB-A: 1.2

## O=C([O-])C[C@@H](CNC(=O)OCOC(=O)c1ccccc1)c1ccc(Cl)cc1.[Na+] [(12), Sodium 4-[(Benzoyloxymethoxy)carbonylamino]-(3R)-(4-chlorophenyl)-butanoate]
Pancreatin; [11]
  % of Baclofen Released: 77%
  % of Prodrug Remaining: 15%
Aqueous buffer, 1 h, pH 2
  % of Baclofen Released: 0%
  % of Prodrug Remaining: 100%
Aqueous buffer, 1 h, pH 7.4
  % of Baclofen Released: 0%
  % of Prodrug Remaining: 100%
Aqueous buffer, 1 h, pH 8
  % of Baclofen Released: 0%
  % of Prodrug Remaining: 105%
[1]; rat, plasma, 1 h, 2 µM
  % of Baclofen Released: 14%
  % of Prodrug Remaining: 72%
[2]; human, plasma, 1 h, 2 µM
  % of Baclofen Released: 5%
  % of Prodrug Remaining: 95%
[3]; rat, s9, 1 h, 2 µM
  % of Baclofen Released: 100%
  % of Prodrug Remaining: 3%
[4]; human, s9, 1 h, 2 µM
  % of Baclofen Released: 100%
  % of Prodrug Remaining: 1%
[5]; human, s9, 1 h
  % of Baclofen Released: 100%
  % of Prodrug Remaining: 2%
Caco-2 cells
  Ratio A-BB-A: 5.9

## CC(C)(C)C(=O)OCOC(=O)NC[C@H](CC(=O)[O-])c1ccc(Cl)cc1.[Na+] [(20), Sodium 4-[(Pivaloyloxymethoxy)carbonylamino]-(3R)-(4-chlorophenyl)-butanoate]
Pancreatin; [11]
  % of Baclofen Released: 36%
  % of Prodrug Remaining: 58%
Aqueous buffer, 1 h, pH 2
  % of Baclofen Released: 0%
  % of Prodrug Remaining: 100%
Aqueous buffer, 1 h, pH 7.4
  % of Baclofen Released: 0%
  % of Prodrug Remaining: 100%
Aqueous buffer, 1 h, pH 8
  % of Baclofen Released: 0%
  % of Prodrug Remaining: 103%
[1]; rat, plasma, 1 h, 2 µM
  % of Baclofen Released: 8%
  % of Prodrug Remaining: 92%
[2]; human, plasma, 1 h, 2 µM
  % of Baclofen Released: 9%
  % of Prodrug Remaining: 82%
[3]; rat, s9, 1 h, 2 µM
  % of Baclofen Released: 75%
  % of Prodrug Remaining: 25%
[4]; human, s9, 1 h, 2 µM
  % of Baclofen Released: 100%
  % of Prodrug Remaining: 1%
[5]; human, s9, 1 h
  % of Baclofen Released: 100%
  % of Prodrug Remaining: 1%
Caco-2 cells
  Ratio A-BB-A: 11.8

## CCCC(=O)OC(C)OC(=O)NC[C@H](CC(=O)[O-])c1ccc(Cl)cc1.[Na+] (stereo partly drawn) [(32), Sodium 4-[(1-Butanoyloxyethoxy)carbonylamino]-(3R)-(4-chlorophenyl)-butanoate]
Caco-2 cells
  Ratio A-BB-A: 7.6

## CC(OC(=O)NC[C@H](CC(=O)[O-])c1ccc(Cl)cc1)OC(=O)C(C)(C)C.[Na+] (stereo partly drawn) [(36), Sodium 4-[(1-Pivaloyrloxyethoxy)carbonylamino]-(3R)-(4-chlorophenyl)-butanoate]
Caco-2 cells
  Ratio A-BB-A: 1.5

## CCC(=O)OC(OC(=O)NC[C@H](CC(=O)[O-])c1ccc(Cl)cc1)C(C)C.[Na+] (stereo partly drawn) [(48), Sodium 4-[(1-Propanoyloxyisobutoxy)carbonylamino]-(3R)-(4-chlorophenyl)-butanoate]
Caco-2 cells
  Ratio A-BB-A: 6.5

## CCOC(C)(OCC)C(=O)OCOC(=O)NC[C@H](CC(=O)[O-])c1ccc(Cl)cc1.[Na+] [(51), Sodium 4-[(2,2-Diethoxypropanoyloxymethoxy)carbonylamino]-(3R)-(4-chlorophenyl)-butanoate]
Pancreatin; [11]
  % of Baclofen Released: 50%
  % of Prodrug Remaining: 44%
Aqueous buffer, 1 h, pH 2
  % of Baclofen Released: 0%
  % of Prodrug Remaining: 100%
Aqueous buffer, 1 h, pH 7.4
  % of Baclofen Released: 2%
  % of Prodrug Remaining: 97%
Aqueous buffer, 1 h, pH 8
  % of Baclofen Released: 9%
  % of Prodrug Remaining: 91%
[1]; rat, plasma, 1 h, 2 µM
  % of Baclofen Released: 72%
  % of Prodrug Remaining: 31%
[2]; human, plasma, 1 h, 2 µM
  % of Baclofen Released: 50%
  % of Prodrug Remaining: 53%
[3]; rat, s9, 1 h, 2 µM
  % of Baclofen Released: 103%
  % of Prodrug Remaining: 2%
[4]; human, s9, 1 h, 2 µM
  % of Baclofen Released: 91%
  % of Prodrug Remaining: 6%
[5]; human, s9, 1 h
  % of Baclofen Released: 100%
  % of Prodrug Remaining: 3%
Caco-2 cells
  Ratio A-BB-A: 3.0

## COc1ccc(C(=O)OCOC(=O)NC[C@H](CC(=O)[O-])c2ccc(Cl)cc2)cc1.[Na+] [(53), Sodium 4-[(4-Methoxybenzoyloxymethoxy)carbonylamino]-(3R)-(4-chlorophenyl)-butan oate]
Caco-2 cells
  Ratio A-BB-A: 2.4

## CCCC(OC(=O)NC[C@H](CC(=O)[O-])c1ccc(Cl)cc1)OC(=O)c1ccccc1.[Na+] (stereo partly drawn) [(71), Sodium 4-[(1-Benzoyloxybutoxy)carbonylamino]-(3R)-(4-chlorophenyl)-butanoate]
Caco-2 cells
  Ratio A-BB-A: 7.1

## CCCC(OC(=O)NC[C@H](CC(=O)[O-])c1ccc(Cl)cc1)OC(=O)C(C)C.[Na+] (stereo partly drawn) [(72), Sodium 4-[(1-Isobutanoyloxybutoxy)carbonylamino]-(3R)-(4-chlorophenyl)-butanoate]
Caco-2 cells
  Ratio A-BB-A: 3.5

## CCCC(=O)OC(CCC)OC(=O)NC[C@H](CC(=O)[O-])c1ccc(Cl)cc1.[Na+] (stereo partly drawn) [(73), Sodium 4-[(1-Butanoyloxybutoxy)carbonylamino]-(3R)-(4-chlorophenyl)-butanoate]
Caco-2 cells
  Ratio A-BB-A: 3.2

## CCCC(OC(C)=O)OC(=O)NC[C@H](CC(=O)[O-])c1ccc(Cl)cc1.[Na+] (stereo partly drawn) [(74), Sodium 4-[(1-Acetoxybutoxy)carbonylamino]-(3R)-(4-chlorophenyl)-butanoate]
Caco-2 cells
  Ratio A-BB-A: 11.2

## CCCC(=O)OC(CC)OC(=O)NC[C@H](CC(=O)[O-])c1ccc(Cl)cc1.[Na+] (stereo partly drawn) [(78), Sodium 4-[(1-Butanoyloxypropoxy)carbonylamino]-(3R)-(4-chlorophenyl)-butanoate]
Caco-2 cells
  Ratio A-BB-A: 7.9

## CCCC(=O)O[C@H](CCC)OC(=O)NC[C@H](CC(=O)O)c1ccc(Cl)cc1 [(86), Sodium 4-{[(1S)-Butanoyloybutoxy]carbonylamino}-(3R)-(4-chlorophenyl)-butanoate]
Pancreatin stability; pancreatin, pH 7.5, 1 % (w/v) pancreatin, 5 µM, pH 7.5, 37 °C, after 60 min, read-out: % of Baclofen Released
  metabolised at 1 h, 5 µM: 76%
Pancreatin stability; 1 % (w/v) pancreatin, 5 µM, pH 7.5, 37 °C, after 60 min
  remaining at 1 h, 5 µM: 4%
physchem; pH 2, % of Baclofen Released
  degraded at 1 h: 0%
physchem; pH 7.4, % of Baclofen Released
  degraded at 1 h: 1%
physchem; pH 8, % of Baclofen Released
  degraded at 1 h: 2%
In vitro [6]
  metabolised at 1 h, 2 µM: 83%
In vitro [7]
  metabolised at 1 h, 2 µM: 13%
In vitro [8]; liver s9
  metabolised at 1 h, 2 µM: 92%
In vitro [8]; [12]
  remaining at 1 h, 2 µM: 2%
In vitro [9]; liver s9
  metabolised at 1 h, 2 µM: 87%
In vitro [9]; [12]
  remaining at 1 h, 2 µM: 2%
In vitro [10]
  metabolised at 1 h, 5 µM: 95%

## CC(C)C(=O)O[C@@H](OC(=O)NC[C@H](CC(=O)O)c1ccc(Cl)cc1)C(C)C [(104), 4-{[(1S)-Isobutanoyloxyisobutoxy]carbonylamino}-(3R)-(4-chlorophenyl) -butanoic Acid]
Pancreatin stability; pancreatin, pH 7.5
  remaining at 1 h, 5 µM: 90%
Aqueous buffer pH 7.4, 37°C, after 60 min, 60 min
  % of Prodrug Remaining: 100%
Aqueous buffer pH 8.0, 37°C, after 60 min, 60 min
  % of Baclofen Released: 0%
Aqueous buffer, pH 2, 60 min
  % of Prodrug Remaining: 100/0%
Aqueous buffer, pH 8, 60 min
  % of Prodrug Remaining: 100/0%
[1]; [13]
  % of Baclofen Released: 85%
  % of Prodrug Remaining: 14%
[2]; [14]
  % of Baclofen Released: 2%
  % of Prodrug Remaining: 98%
[3]; [15]
  % of Baclofen Released: 97%
  % of Prodrug Remaining: 3%
[4]; [16]
  % of Baclofen Released: 97%
  % of Prodrug Remaining: 3%
[5]; [17]
  % of Baclofen Released: 83%
  % of Prodrug Remaining: 17%
physchem; pH 2, % of Baclofen Released
  degraded at 1 h: 0%
physchem; pH 7.4, % of Baclofen Released
  degraded at 1 h: 0%

## Sodium 4-[(1-Benzoyloxgyethoxy)carbonylaminol-(3R)-(4-chlorophenyl)-butanoate [(40)]
Pancreatin; pig, pancreatin, 1 h, pH 7.5
  % of Baclofen Released: 43/58%
  % of Prodrug Remaining: 43/58%
Aqueous buffer, pH 2, 60 min
  % of Baclofen Released: 103/0%
  % of Prodrug Remaining: 103/0%
Aqueous buffer, pH 7.4, 60 min
  % of Baclofen Released: 100/0%
  % of Prodrug Remaining: 100/0%
Aqueous buffer, pH 8, 60 min
  % of Baclofen Released: 107/2%
  % of Prodrug Remaining: 107/2%
[1]; rat, plasma, 60 min, 2 µM
  % of Baclofen Released: 72/17%
  % of Prodrug Remaining: 72/17%
[2]; human, plasma, 60 min, 2 µM
  % of Baclofen Released: 101/2%
  % of Prodrug Remaining: 101/2%
[3]; rat, s9, 60 min, 2 µM
  % of Baclofen Released: 8/96%
  % of Prodrug Remaining: 8/96%
[4]; human, s9, 60 min, 2 µM
  % of Baclofen Released: 1/105%
  % of Prodrug Remaining: 1/105%
[5]; human, s9, 1 h
  % of Baclofen Released: 15/85%
  % of Prodrug Remaining: 15/85%
